Measurements published in US12606568B2, “SMARCA degraders and uses thereof” (Kymera Therapeutics, Inc., priority 2020, dated 2026).

Target: SMARCA2 (Homo sapiens, UniProt P51531)
Experiment: SMARCA2 Western blot MV4-11 degradation
Type: cell-based
Set-up: SMARCA2 and SMARCA4 protein degradation in MV4-11 cells; endogenous in cells; host or cells: MV4-11
Details: for Dmax: MV4-11, MV4-11 cells, read-out: SMARCA2 MSD MV411 degradation 24 h: average Dmax %; for Dmax / DC50: 24 h; for DC50 / SMARCA2 MSD MV411 degradation 24 h: average Dmax %: MV4-11 cells; for DC50: read-out: SMARCA2 MSD MV411 degradation 24 h: Mean external-Abs DC50
Protocol: Example 54. SMARCA2 and SMARCA 4 Western Blot MV4-11 Degradation
Cells were seeded into 6-well plates (MV4-11: 4×10^6 cells/well/1 ml) and 1 ml of 2× compound solution was added into the well to make the final concentration and the plates were mixed well and incubated for 24 hours (No cytotoxicity was observed). The cell were collected with media and spun at 3000 rpm for 5 minutes. The supernatant was aspirated and the well and the cells were washed with cold PBS once and combined for centrifugation again; the supernatant aspirated again. 200 ul pre-chilled RIPA lysis buffer (Boston BioProducts BP-115D) with protease/phosphatase inhibitor (Roche 05892791001/Roche 04906837001) was directly added into the tube to lyze the cells for 20 minutes on ice. The cell lysate were collected into EP tubes and spun at 13000 rpm for 20 minutes and 72 ul supernatant was transferred to a fresh EP tube containing 18 ul of 5× loading buffer (Beyotime Bio P0015) to make the loading samples. The samples were heated to 100° C. for 10 minutes and cooled to RT and microcentrifuged. 20 ul of samples were loaded onto SDS-PAGE gel (Novex, WG1402BOX) and the gel was run at 80 V for 20 minutes and 120 V for 1.5 hours. The samples were electrotransfer to a NC membrane using wet-transfer method with 250 mA for 2.5 hours. The membrane was blocked with LICOR blocking buffer (LI-COR, 927-50000) for 1 hour. The membrane was washed three times with TBST (CST #9997S), 5 minutes each. Incubation was performed with primary antibody prepared in blocking buffer with 0.1% Tween-20 (Solarbio, P8220) at 4° C. overnight (Anti-SMARCA2/BRM antibody (ab15597) 1:500; Anti-BRG1 antibody [EPR3912] (ab108318) 1:1000; Rabbit anti-Baf180 antibody [EPR15860] (Abcam, ab196022) 1:1000; mouse anti-beta-Actin (8H10D10) (CST #3700) 1:10000). The membrane was washed three times with TBST, 5 minutes each. Incubation with secondary antibody was performed for 1 hour at RT (anti-rabbit IgG (Licor, 926-32211) 1:5000; anti-mouse IgG (LI-COR, 926-68070) 1:5000). The membrane was washed three times with TBST, 5 minutes each and lastly the LiCOR was read.
The letter codes for SMARCA degradation potency (DC50) include: A (<100 nM), B (100-500 nM), C (501-1000 nM), and D (>1000 nM). The letter codes for the percentage of SMARCA degradation after 24 hours (Dmax %) include: A (>90% degradation), B (>70-90% degradation), C (50-70% degradation), and D (<50% degradation).

Chain of SMARCA2 (P51531 whole entry): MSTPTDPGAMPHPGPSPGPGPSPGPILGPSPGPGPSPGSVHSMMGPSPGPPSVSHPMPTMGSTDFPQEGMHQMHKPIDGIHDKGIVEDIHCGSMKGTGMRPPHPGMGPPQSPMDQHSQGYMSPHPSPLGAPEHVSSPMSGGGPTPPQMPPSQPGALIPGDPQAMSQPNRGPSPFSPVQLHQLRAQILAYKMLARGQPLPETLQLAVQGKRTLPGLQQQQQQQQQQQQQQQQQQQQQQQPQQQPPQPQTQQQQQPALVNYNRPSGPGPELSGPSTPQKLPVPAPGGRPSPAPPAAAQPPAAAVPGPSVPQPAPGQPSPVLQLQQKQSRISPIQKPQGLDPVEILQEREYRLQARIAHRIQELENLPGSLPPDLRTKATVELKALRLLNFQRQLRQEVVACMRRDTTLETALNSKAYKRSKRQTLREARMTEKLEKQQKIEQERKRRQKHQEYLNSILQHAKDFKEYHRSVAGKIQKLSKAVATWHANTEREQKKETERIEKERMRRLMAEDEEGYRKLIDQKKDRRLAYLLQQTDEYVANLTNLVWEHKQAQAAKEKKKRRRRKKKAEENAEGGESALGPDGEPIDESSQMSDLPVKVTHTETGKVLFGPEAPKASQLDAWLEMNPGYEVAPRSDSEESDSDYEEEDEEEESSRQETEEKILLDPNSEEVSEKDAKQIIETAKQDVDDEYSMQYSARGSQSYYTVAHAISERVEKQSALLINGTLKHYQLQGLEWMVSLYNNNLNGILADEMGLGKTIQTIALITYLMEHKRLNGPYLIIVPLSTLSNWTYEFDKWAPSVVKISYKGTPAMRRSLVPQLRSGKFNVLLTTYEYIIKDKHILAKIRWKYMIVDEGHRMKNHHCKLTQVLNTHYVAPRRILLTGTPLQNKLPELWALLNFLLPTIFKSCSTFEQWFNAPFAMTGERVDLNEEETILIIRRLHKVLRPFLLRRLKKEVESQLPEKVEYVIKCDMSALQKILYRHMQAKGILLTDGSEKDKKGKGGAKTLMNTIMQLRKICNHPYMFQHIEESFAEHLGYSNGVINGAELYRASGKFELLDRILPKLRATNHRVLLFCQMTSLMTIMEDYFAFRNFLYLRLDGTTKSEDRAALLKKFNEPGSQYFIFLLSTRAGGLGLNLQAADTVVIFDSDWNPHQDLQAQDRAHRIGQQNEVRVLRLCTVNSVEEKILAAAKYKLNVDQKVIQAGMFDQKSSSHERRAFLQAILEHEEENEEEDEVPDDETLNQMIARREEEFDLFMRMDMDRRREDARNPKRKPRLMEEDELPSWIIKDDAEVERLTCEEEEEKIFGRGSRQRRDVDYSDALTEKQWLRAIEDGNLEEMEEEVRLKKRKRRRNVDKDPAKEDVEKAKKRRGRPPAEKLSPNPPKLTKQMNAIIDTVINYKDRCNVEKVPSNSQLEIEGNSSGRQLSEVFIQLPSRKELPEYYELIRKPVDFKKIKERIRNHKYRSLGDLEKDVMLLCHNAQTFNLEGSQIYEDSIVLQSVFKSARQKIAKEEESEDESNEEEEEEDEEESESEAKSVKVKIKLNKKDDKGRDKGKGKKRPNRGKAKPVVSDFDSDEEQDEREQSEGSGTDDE

Row | SMILES | Dmax | DC50 | SMARCA2 MSD MV411 degradation 24 h: average Dmax %
1 | Cc1ncsc1-c1ccc(CNC(=O)[C@@H]2C[C@@H](O)CN2C(=O)[C@@H](NC(=O)CN2C3CCC2CN([C@H]2CC[C@@H](c4cnc(N5C6CCC5CN(c5cc(-c7ccccc7O)nnc5N)C6)nc4)CC2)C3)C(C)(C)C)cc1 [I-77, (2S,4R)-1-((2S)-2-(2-(3-((1s,4R)-4-(2-(3-(3-amino-6-(2-hydroxyphenyl)pyridazin-4-yl)-3,8-diazabicyclo[3.2.1]octan-8-yl)pyrimidin-5-yl)cyclohexyl)-3,8-diazabicyclo[3.2.1]octan-8-yl)acetamido)-3,3-dimethylbutanoyl)-4-hydroxy-N-(4-(4-methylthiazol-5-yl)benzyl)pyrrolidine-2-carboxamide] | 70 to 90% | < 100 nM | –
2 | Cc1cc(C(C(=O)N2C[C@H](O)C[C@H]2C(=O)NCc2ccc(-c3scnc3C)cc2)C(C)CCN2CCC(c3cnc(N4C5CCC4CN(c4cc(-c6ccccc6O)nnc4N)C5)nc3)CC2)on1 (single isomer, unassigned) [I-46] | – | < 100 nM | B (B (>70-90% degradation))
3 | Cc1ncsc1-c1ccc(CNC(=O)[C@@H]2C[C@@H](O)CN2C(=O)[C@H](c2cc(OCCCCN3CCC(c4cnc(N5C6CCC5CN(c5cc(-c7ccccc7O)nnc5N)C6)nc4)CC3)no2)C(C)C)cc1 [I-57] | > 90% | < 100 nM | –
4 | Cc1ncsc1-c1ccc(CNC(=O)[C@@H]2C[C@@H](O)CN2C(=O)[C@@H](c2cc(N3CCC(CCN4CCC(c5cnc(N6C7CCC6CN(c6cc(-c8ccccc8O)nnc6N)C7)nc5)CC4)CC3)no2)C(C)C)cc1 [I-62, (2S,4R)-1-((2R)-2-(3-(4-(2-(4-(2-(3-(3-amino-6-(2-hydroxyphenyl)pyridazin-4-yl)-3,8-diazabicyclo[3.2.1]octan-8-yl)pyrimidin-5-yl)piperidin-1-yl)ethyl)piperidin-1-yl)isoxazol-5-yl)-3-methylbutanoyl)-4-hydroxy-N-(4-(4-methylthiazol-5-yl)benzyl)pyrrolidine-2-carboxamide] | 50 to 70% | 100 to 500 nM | –
5 | Cc1ncsc1-c1ccc(CNC(=O)[C@@H]2C[C@@H](O)CN2C(=O)[C@@H](NC(=O)C2(F)CC2)C(C)(C)C)c(OCCCCN2CCC(c3cnc(N4C5CCC4CN(c4cc(-c6ccccc6O)nnc4N)C5)nc3)CC2)c1 [I-74] | 70 to 90% | < 100 nM | –
6 | Cc1ncsc1-c1ccc(CNC(=O)[C@@H]2C[C@@H](O)CN2C(=O)[C@@H](c2cc(OCCCCN3CCC(c4cnc(N5C6CCC5CN(c5cc(-c7ccccc7O)nnc5N)C6)nc4)CC3)no2)C(C)C)cc1 [I-56] | – | < 100 nM | B (B (>70-90% degradation))
7 | Cc1ncsc1-c1ccc(CNC(=O)[C@@H]2C[C@@H](O)CN2C(=O)[C@@H](c2cc(N3CCC(N4CCC(c5cnc(N6C7CCC6CN(c6cc(-c8ccccc8O)nnc6N)C7)nc5)CC4)CC3)no2)C(C)C)cc1 [I-49, (2S,4R)-1-(2-(3-(4-(2-(3-(3-amino-6-(2-hydroxyphenyl)pyridazin-4-yl)-3,8-diazabicyclo[3.2.1]octan-8-yl)pyrimidin-5-yl)-[1,4′-bipiperidin]-1′-yl)isoxazol-5-yl)-3-methylbutanoyl)-4-hydroxy-N-(4-(4-methylthiazol-5-yl)benzyl)pyrrolidine-2-carboxamide] | > 90% | < 100 nM | –
8 | Cc1ncsc1-c1ccc(CNC(=O)[C@@H]2C[C@@H](O)CN2C(=O)[C@@H](NC(=O)C2(F)CC2)C(C)(C)C)c(OC2CCC(N3CCC(c4cnc(N5C6CC[C@@H]5CN(c5cc(-c7ccccc7O)nnc5N)C6)nc4)CC3)CC2)c1 (stereo partly drawn) [I-71, (2S,4R)—N-(2-(((1r,4S)-4-(4-(2-(3-(3-amino-6-(2-hydroxyphenyl)pyridazin-4-yl)-3,8-diazabicyclo[3.2.1]octan-8-yl)pyrimidin-5-yl)piperidin-1-yl)cyclohexyl)oxy)-4-(4-methylthiazol-5-yl)benzyl)-1-((S)-2-(1-fluorocyclopropanecarboxamido)-3,3-dimethylbutanoyl)-4-hydroxypyrrolidine-2-carboxamide] | – | < 100 nM | B (B (>70-90% degradation))
9 | Cc1ncsc1-c1ccc(CNC(=O)[C@@H]2C[C@@H](O)CN2C(=O)[C@H](c2cc(N3CCC(CCN4CCC(c5cnc(N6C7CCC6CN(c6cc(-c8ccccc8O)nnc6N)C7)nc5)CC4)CC3)no2)C(C)C)cc1 [I-63, (2S,4R)-1-((2S)-2-(3-(4-(2-(4-(2-(3-(3-amino-6-(2-hydroxyphenyl)pyridazin-4-yl)-3,8-diazabicyclo[3.2.1]octan-8-yl)pyrimidin-5-yl)piperidin-1-yl)ethyl)piperidin-1-yl)isoxazol-5-yl)-3-methylbutanoyl)-4-hydroxy-N-(4-(4-methylthiazol-5-yl)benzyl)pyrrolidine-2-carboxamide] | > 90% | < 100 nM | –
10 | Cc1cc(C(C(=O)N2C[C@H](O)C[C@H]2C(=O)NCc2ccc(-c3scnc3C)cc2)C(C)CCN2CCC(c3cnc(N4C5CCC4CN(c4cc(-c6ccccc6O)nnc4N)C5)nc3)CC2)on1 (stereo partly drawn) [I-44, (2S,4R)-1-(5-(4-(2-(3-(3-amino-6-(2-hydroxyphenyl)pyridazin-4-yl)-3,8-diazabicyclo[3.2.1]octan-8-yl)pyrimidin-5-yl)piperidin-1-yl)-3-methyl-2-(3-methylisoxazol-5-yl)pentanoyl)-4-hydroxy-N-(4-(4-methylthiazol-5-yl)benzyl)pyrrolidine-2-carboxamide] | 70 to 90% | < 100 nM | –
11 | Cc1ncsc1-c1ccc(CNC(=O)[C@@H]2C[C@@H](O)CN2C(=O)[C@@H](NC(=O)C2(F)CC2)C(C)(C)C)c(OCCCCCCN2CCC(c3cnc(N4C5CCC4CN(c4cc(-c6ccccc6O)nnc4N)C5)nc3)CC2)c1 [I-75, (2S,4R)—N-(2-((6-(4-(2-(3-(3-amino-6-(2-hydroxyphenyl)pyridazin-4-yl)-3,8-diazabicyclo[3.2.1]octan-8-yl)pyrimidin-5-yl)piperidin-1-yl)hexyl)oxy)-4-(4-methylthiazol-5-yl)benzyl)-1-((S)-2-(1-fluorocyclopropanecarboxamido)-3,3-dimethylbutanoyl)-4-hydroxypyrrolidine-2-carboxamide] | 70 to 90% | < 100 nM | –
12 | Cc1ncsc1-c1ccc(CNC(=O)[C@@H]2C[C@@H](O)CN2C(=O)[C@@H](NC(=O)C2CC3(C2)CC(N2CCC(c4cnc(N5CCN(c6cc(-c7ccccc7O)nnc6N)CC5)nc4)CC2)C3)C(C)(C)C)cc1 (stereo partly drawn) [I-65, (2S,4R)-1-((S)-2-(6-(4-(2-(4-(3-amino-6-(2-hydroxyphenyl)pyridazin-4-yl)piperazin-1-yl)pyrimidin-5-yl)piperidin-1-yl)spiro[3.3]heptane-2-carboxamido)-3,3-dimethylbutanoyl)-4-hydroxy-N-(4-(4-methylthiazol-5-yl)benzyl)pyrrolidine-2-carboxamide] | 50 to 70% | < 100 nM | –
13 | Cc1cc(C(C(=O)N2C[C@H](O)C[C@H]2C(=O)NCc2ccc(-c3scnc3C)cc2)C(C)CCN2CCC(c3cnc(N4C5CCC4CN(c4cc(-c6ccccc6O)nnc4N)C5)nc3)CC2)on1 (single isomer, unassigned) [I-45] | > 90% | < 100 nM | –
